Reference: PubChem BioAssay AID248 (DTP/NCI, 2004)
Values joined by “and” are separate entries in the source; they are usually repeats but may differ in a detail not shown here. Equal values may be shown once. Toxic doses and inconclusive results are not listed. Cut-off read from the data, not from the text of the source: active = T/C of 150% or more; inactive = T/C below 125%.

System: L1210 leukemia ip in BDF1 mice, survival T/C
Test: NCI In Vivo Anticancer Drug Screen. Data for tumor model L1210 Leukemia (intraperitoneal) in B6D2F1 (BDF1) mice
Details: endpoint: mean survival time, higher = longer survival
In short: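 In this screen, tumor-bearing mice given compound are compared to those given vehicle, and their survival values are reported as a treated-to-control quotient.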

[1] = dose: 100.0 mg/kg/injection, schedule: Q01DX009 (ip), vehicle: saline with Tween-80
[2] = dose: 100.0 mg/kg/injection, schedule: Q04DX003 (ip), vehicle: saline with Tween-80
[3] = dose: 200.0 mg/kg/injection, schedule: Q01DX009 (ip), vehicle: saline with Tween-80
[4] = dose: 200.0 mg/kg/injection, schedule: Q04DX003 (ip), vehicle: saline with Tween-80
[5] = dose: 400.0 mg/kg/injection, schedule: Q01DX009 (ip), vehicle: saline with Tween-80
[6] = dose: 400.0 mg/kg/injection, schedule: Q04DX003 (ip), vehicle: saline with Tween-80
[7] = dose: 6.25 mg/kg/injection, schedule: Q01DX009 (ip), vehicle: saline
[8] = dose: 12.5 mg/kg/injection, schedule: Q01DX009 (ip), vehicle: saline
[9] = dose: 100.0 mg/kg/injection, schedule: Q04DX003 (ip), vehicle: saline
[10] = dose: 200.0 mg/kg/injection, schedule: Q04DX003 (ip), vehicle: saline
[11] = dose: 50.0 mg/kg/injection, schedule: Q01DX009 (ip), vehicle: Klucel (hydroxypropylcellulose) (HPC)
[12] = dose: 100.0 mg/kg/injection, schedule: Q01DX009 (ip), vehicle: Klucel (hydroxypropylcellulose) (HPC)
[13] = dose: 100.0 mg/kg/injection, schedule: Q04DX003 (ip), vehicle: Klucel (hydroxypropylcellulose) (HPC)
[14] = dose: 200.0 mg/kg/injection, schedule: Q01DX009 (ip), vehicle: Klucel (hydroxypropylcellulose) (HPC)
[15] = dose: 5.0 mg/kg/injection, schedule: Q01DX009 (ip), vehicle: saline
[16] = dose: 20.0 mg/kg/injection, schedule: Q01DX009 (ip), vehicle: saline
[17] = dose: 50.0 mg/kg/injection, schedule: Q01DX009 (ip), vehicle: saline
[18] = dose: 200.0 mg/kg/injection, schedule: Q01DX001 (ip), vehicle: Klucel (hydroxypropylcellulose) (HPC)

Measured: T/C

Cn1nc(NC(=O)C(F)(F)F)c2ncc(-c3ccc(Cl)cc3)nc21
inactive: [1] 102 % of control | [2] 100 % of control | [3] 97 % of control | [4] 87 % of control | [5] 97 % of control | [6] 96 % of control

CC(=O)OCCN1CC1
inactive: dose: 3.12 mg/kg/injection, schedule: Q01DX009 (ip), vehicle: saline 116 % of control | [7] 122 % of control | [8] 118 % of control

CN(C)c1ccc(-c2nc3ccccn3c2N)cc1
inactive: dose: 3.13 mg/kg/injection, schedule: Q01DX009 (ip), vehicle: saline 95 % of control | [7] 92 % of control and 101 % of control | [8] 100 % of control and 114 % of control

C/C=C\C(=O)OCC(C)CCC (configuration not stated)
inactive: dose: 100.0 mg/kg/injection, schedule: Q04DX002 (ip), vehicle: saline with Tween-80 97 % of control | dose: 200.0 mg/kg/injection, schedule: Q04DX002 (ip), vehicle: saline with Tween-80 102 % of control

COC(=O)c1ccccc1OC(=O)c1ccccc1
inactive: [9] 105 % of control | [10] 97 % of control | dose: 400.0 mg/kg/injection, schedule: Q04DX003 (ip), vehicle: saline 105 % of control

Cc1ccccc1N=Cc1ccc2c(c1)OCO2
inactive: [11] 106 % of control | [12] 96 % of control | [13] 98 % of control | [14] 106 % of control | dose: 200.0 mg/kg/injection, schedule: Q04DX003 (ip), vehicle: Klucel (hydroxypropylcellulose) (HPC) 89 % of control | dose: 400.0 mg/kg/injection, schedule: Q04DX003 (ip), vehicle: Klucel (hydroxypropylcellulose) (HPC) 110 % of control

Cn1cnc2c(C(F)(F)F)nc(N)nc21
inactive: [9] 94 % of control | [10] 102 % of control

CC1(C)CN1P(=O)(N1CC1(C)C)N1CC1(C)C (configuration not stated)
active: dose: 6.0 mg/kg/injection, schedule: Q01DX009 (ip), vehicle: saline 182 % of control | dose: 12.0 mg/kg/injection, schedule: Q01DX009 (ip), vehicle: saline 151 % of control | [16] 194 % of control | dose: 22.0 mg/kg/injection, schedule: Q01DX009 (ip), vehicle: saline 222 % of control | dose: 33.0 mg/kg/injection, schedule: Q01DX009 (ip), vehicle: saline 213 % of control | dose: 40.0 mg/kg/injection, schedule: Q01DX009 (ip), vehicle: saline 269 % of control | [17] 204 % of control | dose: 112.5 mg/kg/injection, schedule: Q01DX001 (ip), vehicle: saline 184 % of control
225 % of control and 86 % of control: dose: 150.0 mg/kg/injection, schedule: Q01DX001 (ip), vehicle: saline
inactive: dose: 1.25 mg/kg/injection, schedule: Q01DX009 (ip), vehicle: saline 105 % of control | dose: 2.5 mg/kg/injection, schedule: Q01DX009 (ip), vehicle: saline 111 % of control | [15] 107 % of control | dose: 75.0 mg/kg/injection, schedule: Q01DX009 (ip), vehicle: saline 95 % of control

CN(CCCl)Cc1ccccc1
inactive: dose: 8.2 mg/kg/injection, schedule: Q01DX Z (ip), vehicle: methylcellulose (MC) 107 % of control | dose: 18.8 mg/kg/injection, schedule: Q01DX Z (ip), vehicle: methylcellulose (MC) 109 % of control and 112 % of control | dose: 25.0 mg/kg/injection, schedule: Q01DX009 (ip), vehicle: Klucel (hydroxypropylcellulose) (HPC) 101 % of control | dose: 25.0 mg/kg/injection, schedule: Q01DX009 (ip), vehicle: saline 107 % of control | dose: 28.0 mg/kg/injection, schedule: Q01DX Z (ip), vehicle: methylcellulose (MC) 114 % of control and 121 % of control | [11] 112 % of control | [17] 103 % of control | dose: 50.0 mg/kg/injection, schedule: Q04DX003 (ip), vehicle: Klucel (hydroxypropylcellulose) (HPC) 101 % of control | dose: 63.0 mg/kg/injection, schedule: Q01DX Z (ip), vehicle: methylcellulose (MC) 87 % of control | dose: 100.0 mg/kg/injection, schedule: Q01DX009 (ip), vehicle: saline 97 % of control | [13] 108 % of control

O=S(=O)(O)c1ccc(N=Nc2ccc(O)c(Cl)c2)cc1
inactive: dose: 55.0 mg/kg/injection, schedule: Q01DX Z (ip), vehicle: methylcellulose (MC) 94 % of control | dose: 83.0 mg/kg/injection, schedule: Q01DX Z (ip), vehicle: methylcellulose (MC) 96 % of control | dose: 125.0 mg/kg/injection, schedule: Q01DX Z (ip), vehicle: methylcellulose (MC) 106 % of control

Nc1cc(O)c(CCCNC(=O)CBr)c(-c2ccccc2)c1
inactive: dose: 100.0 mg/kg/injection, schedule: Q01DX001 (ip), vehicle: Klucel (hydroxypropylcellulose) (HPC) 92 % of control | [18] 105 % of control | dose: 400.0 mg/kg/injection, schedule: Q01DX001 (ip), vehicle: Klucel (hydroxypropylcellulose) (HPC) 102 % of control

O=C(C[n+]1ccc(-c2ccccc2)cc1)c1ccccc1
inactive: [9] 109 % of control | [10] 105 % of control

Cc1ccccc1N=Nc1c(O)n(-c2ccccc2)c(=S)n(-c2ccccc2)c1=O
inactive: dose: 37.5 mg/kg/injection, schedule: Q01DX001 (ip), vehicle: saline with Tween-80 99 % of control | dose: 75.0 mg/kg/injection, schedule: Q01DX001 (ip), vehicle: saline with Tween-80 90 % of control | dose: 150.0 mg/kg/injection, schedule: Q01DX001 (ip), vehicle: saline with Tween-80 99 % of control

CC(C)(C)C1CSC(c2ccccc2)SC1 (configuration not stated)
inactive: dose: 12.5 mg/kg/injection, schedule: Q04DX002 (ip), vehicle: Klucel (hydroxypropylcellulose) (HPC) 98 % of control | dose: 25.0 mg/kg/injection, schedule: Q04DX002 (ip), vehicle: Klucel (hydroxypropylcellulose) (HPC) 92 % of control | dose: 50.0 mg/kg/injection, schedule: Q04DX002 (ip), vehicle: Klucel (hydroxypropylcellulose) (HPC) 98 % of control

O=[N+]([O-])c1ccccc1NS(=O)(=O)c1ccccc1
inactive: [1] 95 % of control | [2] 93 % of control | [3] 96 % of control | [4] 97 % of control | [5] 98 % of control | [6] 97 % of control

CCCCCCCCCCCCOC(=O)OC1CCC2(C)C(=CCC3C2CCC2(C)C(C(C)CCCC(C)C)CCC32)C1 (configuration not stated)
inactive: dose: 100.0 mg/kg/injection, schedule: Q01DX008 (sc), vehicle: olive oil, sesame oil, peanut oil 111 % of control | dose: 100.0 mg/kg/injection, schedule: Q04DX003 (sc), vehicle: olive oil, sesame oil, peanut oil 109 % of control | dose: 200.0 mg/kg/injection, schedule: Q01DX008 (sc), vehicle: olive oil, sesame oil, peanut oil 107 % of control | dose: 200.0 mg/kg/injection, schedule: Q04DX003 (sc), vehicle: olive oil, sesame oil, peanut oil 100 % of control | dose: 400.0 mg/kg/injection, schedule: Q01DX008 (sc), vehicle: olive oil, sesame oil, peanut oil 107 % of control | dose: 400.0 mg/kg/injection, schedule: Q04DX003 (sc), vehicle: olive oil, sesame oil, peanut oil 109 % of control

CC(=O)Nc1nc(C)c(CCCN(c2ccccc2)S(=O)(=O)c2ccc(N)cc2)c(=O)[nH]1
inactive: [18] 88 % of control

O=C(CC1NCCCC1O)Cn1cnc2cc3c(cc2c1=O)OCO3 (configuration not stated)
inactive: [15] 117 % of control | dose: 5.0 mg/kg/injection, schedule: Q04DX003 (ip), vehicle: saline 105 % of control | dose: 10.0 mg/kg/injection, schedule: Q01DX009 (ip), vehicle: saline 122 % of control | dose: 10.0 mg/kg/injection, schedule: Q04DX003 (ip), vehicle: saline 105 % of control | [16] 95 % of control | dose: 20.0 mg/kg/injection, schedule: Q04DX003 (ip), vehicle: saline 117 % of control

C/C(CSc1ncnc2nc[nH]c12)=N\NC(N)=S
inactive: dose: 50.0 mg/kg/injection, schedule: Q04DX003 (ip), vehicle: saline with Tween-80 101 % of control | [2] 95 % of control and 102 % of control | [4] 93 % of control | [6] 104 % of control

O=C(O)CCC(=O)c1ccc(Br)cc1
inactive: [11] 100 % of control | [12] 95 % of control | [14] 101 % of control

CSc1nc(C)c(C=O)s1
inactive: dose: 100.0 mg/kg/injection, schedule: Q01DX001 (ip), vehicle: carboxymethylcellulose (CMC) 100 % of control | dose: 200.0 mg/kg/injection, schedule: Q01DX001 (ip), vehicle: carboxymethylcellulose (CMC) 96 % of control | dose: 400.0 mg/kg/injection, schedule: Q01DX001 (ip), vehicle: carboxymethylcellulose (CMC) 94 % of control
